Laboratory results published in publication PMC6678630 (International Journal of Molecular Sciences, 2019).
pEC50: −log10 of the molar value.

Assays:
[1] = target: T1, human glucagon receptor (GCGR) (Homo sapiens, UniProt P47871); experiment: CRE-Luc cAMP-responsive luciferase reporter assay, glucagon receptor; type: cell-based
T1 construct: expressed in transfected cells; host or cells: HEK-293 (transient, with Cre-luc reporter)
Protocol: (§1) The start codon of SYFP2 was replaced by PCR with an XbaI site, and a NotI site was inserted behind the stop codon of SYFP2. The resulting fusion of receptor-SYFP2 was cloned in pcDNA3.
(§2) HEK-293 and Flip-In HEK-293 cells (Invitrogen) were cultured in Dulbecco’s modified Eagle’s media supplemented with 10% foetal calf serum, 100 U/mL penicillin and 100 µg/mL streptomycin. Cells were maintained at 37 °C in a humidified environment containing 5% CO2. HEK-293 cells were transiently transfected using Effectene (Qiagen, Hilden, Germany), following the manufacturer’s protocol. In order to generate stable cell lines Flip-In HEK-293 cells were transfected with the pcDNA5.FRT vector and pOG44 using Effectene. Stable isogenic clones were selected by the addition of hygromycin (100 µg/mL).
(§3) Twenty-four hours after transfection, the cells were seeded into white 96-well plates (Thermo Scientific, Roskilde, Denmark). Twenty-four hours later, the cells were incubated for 3 h in medium containing peptide ligand and then lysed. Luciferase activity was quantified using LucLite reagent (PerkinElmer Life and Analytic Sciences, Wellesley, MA, USA).
(§4) Dose-response curves represent the mean ± S.E.M from at least three independent experiments, each performed in triplicates. […] The dose-response data were fitted to a sigmoidal curve using nonlinear regression, and the EC50 values calculated with the aid of GraphPad 8.0 (GraphPad Dan Diego, CA, USA). The values in Table 1 represent the mean ± S.E.M calculated from the pEC50 (−logEC50) values from at least three independent experiments. Statistical analysis of significance was calculated with GraphPad 8.0 using a two˗tailed, unpaired Student’s t-test.

human GIPR = target: T2, human GIPR (Homo sapiens, UniProt P48546); experiment: CRE-Luc cAMP-responsive luciferase reporter assay, GIP receptor; type: cell-based
T2 construct: expressed in transfected cells; host or cells: HEK-293 (transient, with Cre-luc reporter)
T2 sequence (P48546 22-466): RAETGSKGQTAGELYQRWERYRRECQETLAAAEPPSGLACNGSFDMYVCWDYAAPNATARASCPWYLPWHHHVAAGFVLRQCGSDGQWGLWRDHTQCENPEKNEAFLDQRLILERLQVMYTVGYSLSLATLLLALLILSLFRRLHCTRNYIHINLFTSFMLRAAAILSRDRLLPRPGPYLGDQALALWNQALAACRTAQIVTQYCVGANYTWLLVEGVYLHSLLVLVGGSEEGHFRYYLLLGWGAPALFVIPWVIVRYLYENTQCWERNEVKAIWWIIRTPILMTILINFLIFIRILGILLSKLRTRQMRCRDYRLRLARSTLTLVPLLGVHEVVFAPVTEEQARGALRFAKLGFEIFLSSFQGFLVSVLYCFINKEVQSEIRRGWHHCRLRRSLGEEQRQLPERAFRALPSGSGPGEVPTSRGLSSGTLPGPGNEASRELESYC
Protocol: as §1, §2, §3, §4

[2] = target: T3, human GLP-1R (GLP-1R-Nluc) (Homo sapiens, UniProt P43220); experiment: BRET Gαs recruitment to GLP-1 receptor; type: cell-based; settings: Gαs BRET (NES-Venus-Gαs), Flip-In HEK-293 cells stably expressing GLP-1R-Nluc, 15 min agonist; mean ± S.E.M., 4 independent experiments
T3 construct: expressed in transfected cells; host or cells: Flp-In HEK-293 stably expressing GLP-1R-NLuc (pcDNA5-FRT); NES-Venus-Gαs transient
Protocol: as §2, §4

human GLP-1R = target: T4, human GLP-1R (Homo sapiens, UniProt P43220); experiment: CRE-Luc cAMP-responsive luciferase reporter assay, GLP-1 receptor; type: cell-based
T4 construct: expressed in transfected cells; host or cells: HEK-293 (transient, with Cre-luc reporter)
Protocol: as §1
HEK-293 and Flip-In HEK-293 cells (Invitrogen) were cultured in Dulbecco’s modified Eagle’s media supplemented with 10% foetal calf serum, 100 U/mL penicillin and 100 µg/mL streptomycin. Cells were maintained at 37 °C in a humidified environment containing 5% CO2. HEK-293 cells were transiently transfected using Effectene (Qiagen, Hilden, Germany), following the manufacturer’s protocol. […]
Twenty-four hours after transfection, the cells were seeded into white 96-well plates (Thermo Scientific, Roskilde, Denmark). […] Luciferase activity was quantified using LucLite reagent (PerkinElmer Life and Analytic Sciences, Wellesley, MA, USA).
as §4

rodent models = settings: ref [26],[27]; cited from earlier work
Excerpt: (§5) Several GLP-1R agonists (e.g., exenatide, liraglutide, and semaglutide) are currently used clinically to treat both T2DM and obesity. While they reduce mortality, improve glycemic control, reduce body weight and improve cardiovascular risk factors, the use of higher doses is often limited by adverse effects such as nausea and vomiting. There is therefore the potential to improve upon the current class of GLP-1R agonists. Targeting GIPR to treat T2DM and obesity has a somewhat contradictory history. Unlike GLP-1, pharmacological doses of exogenous GIP were not found to be ins ...

GIPR = settings: cited from earlier work
Excerpt: as §5

T1 sequence (P47871 26-477): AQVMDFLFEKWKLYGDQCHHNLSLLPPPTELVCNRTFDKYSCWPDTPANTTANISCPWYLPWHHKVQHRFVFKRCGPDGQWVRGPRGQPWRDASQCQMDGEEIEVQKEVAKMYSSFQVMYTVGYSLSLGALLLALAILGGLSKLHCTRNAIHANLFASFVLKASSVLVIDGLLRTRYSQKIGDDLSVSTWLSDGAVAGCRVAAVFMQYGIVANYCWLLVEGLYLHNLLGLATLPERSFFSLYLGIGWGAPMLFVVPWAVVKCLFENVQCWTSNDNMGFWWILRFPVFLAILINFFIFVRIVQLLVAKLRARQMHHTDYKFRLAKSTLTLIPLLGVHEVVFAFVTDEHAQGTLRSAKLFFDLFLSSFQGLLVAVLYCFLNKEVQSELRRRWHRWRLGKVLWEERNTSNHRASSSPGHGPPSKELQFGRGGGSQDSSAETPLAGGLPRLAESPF
T4 sequence (P43220 24-463): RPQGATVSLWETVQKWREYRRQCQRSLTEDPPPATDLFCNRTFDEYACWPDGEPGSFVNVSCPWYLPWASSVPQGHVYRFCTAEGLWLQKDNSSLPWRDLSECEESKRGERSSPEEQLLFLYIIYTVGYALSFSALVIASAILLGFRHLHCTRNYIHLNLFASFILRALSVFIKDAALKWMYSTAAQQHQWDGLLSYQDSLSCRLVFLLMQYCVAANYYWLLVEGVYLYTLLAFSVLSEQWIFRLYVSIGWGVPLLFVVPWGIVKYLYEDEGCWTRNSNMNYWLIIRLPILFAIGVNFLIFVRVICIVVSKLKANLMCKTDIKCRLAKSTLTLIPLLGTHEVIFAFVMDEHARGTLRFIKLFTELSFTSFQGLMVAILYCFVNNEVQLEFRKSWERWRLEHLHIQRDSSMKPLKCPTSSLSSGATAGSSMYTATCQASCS
T3 sequence (P43220 24-463): as above

CC[C@H](C)[C@H](NC(=O)[C@H](Cc1ccccc1)NC(=O)[C@H](CCC(=O)O)NC(=O)[C@H](CCCCN)NC(=O)[C@H](C)NC(=O)[C@H](C)NC(=O)[C@H](CCC(N)=O)NC(=O)CNC(=O)[C@H](CCC(=O)O)NC(=O)[C@H](CC(C)C)NC(=O)[C@H](Cc1ccc(O)cc1)NC(=O)[C@H](CO)NC(=O)[C@H](CO)NC(=O)[C@@H](NC(=O)[C@H](CC(=O)O)NC(=O)[C@H](CO)NC(=O)[C@@H](NC(=O)[C@H](Cc1ccccc1)NC(=O)[C@@H](NC(=O)CNC(=O)[C@H](CCC(=O)O)NC(=O)[C@H](C)NC(=O)[C@@H](N)Cc1c[nH]cn1)[C@@H](C)O)[C@@H](C)O)C(C)C)C(=O)N[C@@H](C)C(=O)N[C@@H](Cc1c[nH]c2ccccc12)C(=O)N[C@@H](CC(C)C)C(=O)N[C@H](C(=O)N[C@@H](CCCCN)C(=O)NCC(=O)N[C@@H](CCCNC(=N)N)C(=O)NCC(=O)O)C(C)C [GLP-1, Glucagon-like peptide-1]
activity at glucagon receptor, in words ([1]; CRE-Luc, HEK-293 cells, concentrations up to 1 µM): could not be detected
activity at GIP receptor, in words (human GIPR; CRE-Luc, HEK-293 cells): Neither glucagon nor GLP-1 displayed any detectable activity

CC[C@H](C)[C@H](NC(=O)[C@H](CO)NC(=O)[C@H](Cc1ccc(O)cc1)NC(=O)[C@H](CC(=O)O)NC(=O)[C@H](CO)NC(=O)[C@@H](NC(=O)[C@H](Cc1ccccc1)NC(=O)[C@@H](NC(=O)CNC(=O)[C@H](CCC(=O)O)NC(=O)C(C)(C)NC(=O)[C@@H](N)Cc1ccc(O)cc1)[C@@H](C)O)[C@@H](C)O)C(=O)N[C@@H](Cc1ccc(O)cc1)C(=O)N[C@@H](CC(C)C)C(=O)N[C@@H](CC(=O)O)C(=O)N[C@@H](CCCCN)C(=O)N[C@@H](CCC(N)=O)C(=O)N[C@@H](C)C(=O)N[C@@H](C)C(=O)NC(C)(C)C(=O)N[C@@H](CCC(=O)O)C(=O)N[C@@H](Cc1ccccc1)C(=O)N[C@H](C(=O)N[C@@H](CC(N)=O)C(=O)N[C@@H](Cc1c[nH]c2ccccc12)C(=O)N[C@@H](CC(C)C)C(=O)N[C@@H](CC(C)C)C(=O)N[C@@H](C)C(=O)NCC(=O)NCC(=O)N1CCC[C@H]1C(=O)N[C@@H](CO)C(=O)N[C@@H](CO)C(=O)NCC(=O)N[C@@H](C)C(=O)N1CCC[C@H]1C(=O)N1CCC[C@H]1C(=O)N1CCC[C@H]1C(=O)N[C@@H](CO)C(=O)N[C@@H](CCCCN)C(N)=O)C(C)C [P18]
pEC50 [1]: 4.90
Emax (% Glucagon), Glucagon Receptor ([1]; maximum luciferase activity as a percentage of glucagon, HEK-293 cells, 3 h incubation, mean ± S.E.M., at least 3 independent experiments, ND = no detectable activity at 1 µM, P18 p < 0.0001 vs glucagon): 22.6 ± 1.96 d % Glucagon
Emax (% GIP), GIP Receptor (human GIPR; maximum luciferase activity as a percentage of GIP, HEK-293 cells, 3 h incubation, mean ± S.E.M., at least 3 independent experiments, ND = no detectable activity at 1 µM): 94.4 ± 4.09 % GIP
EC50 (human GIPR; −logEC50/M, CRE-Luc in transiently transfected HEK-293 cells, 3 h incubation, mean ± S.E.M., at least 3 independent experiments in triplicate, ND = no detectable activity at 1 µM, P18 p < 0.05 vs GIP, read-out: pEC50, GIP Receptor (converted)): 15.8 nM
pEC50 [2]: 7.40
pEC50 (human GLP-1R): 9.70
Emax (% GLP-1), GLP-1 Receptor (human GLP-1R; maximum luciferase activity as a percentage of GLP-1, HEK-293 cells, 3 h incubation, mean ± S.E.M., at least 3 independent experiments, ND = no detectable activity at 1 µM, glucagon p < 0.01 vs GLP-1): 106 ± 10.7 % GLP-1

Pro3GIP: derivative of GIP with a glutamic acid to proline substitution at position three (YAPGTFISDYSIAMDKIHQQDFVNWLLAQKGKKNDWKHNITQ; Gastric inhibitory polypeptide; UniProt P09681 52-93, looked up, variant E3P)
protection against diabetes and obesity (rodent models): protective against diabetes and obesity in rodent models
initially reported activity at GIPR, in words (GIPR; initial report, later contradicted, ref [26],[27]): GIPR antagonist
activity at GIPR, in words (GIPR; ref [28],[29]): low potency GIPR agonist
